pIC50: −log10 of the molar value. “And” between values parts separate entries of the source, which are not always exact repeats. Equal values may be shown once.
What was measured:
[1] = target: Transient receptor potential cation channel subfamily V member 1 (Homo sapiens, UniProt Q8NER1); assay: Antagonist activity at human TRPV1 assessed as inhibition of capsaicin-induced calcium influx in HEK293 cells; type: functional, cell-based
[2] = target: Transient receptor potential cation channel subfamily V member 1 (Rattus norvegicus, UniProt O35433); assay: Antagonist activity at rat TRPV1 assessed as inhibition of capsaicin-induced calcium mobilization; type: functional
Rattus norvegicus [3] = organism: Rattus norvegicus; assay: Effect on capsaicin-induced hypothermia in rat; type: functional
Mus musculus [4] = organism: Mus musculus; assay: Effect on capsaicin-induced licking in mouse; type: functional
Mus musculus [5] = assay: Effect on carrageenan-induced thermal hyperalgesia in mouse at 30 mg/kg, ip; type: functional; conditions: route intraperitoneal
Rattus norvegicus [6] = assay: Effect on carrageenan-induced thermal hyperalgesia in rat at 30 mg/kg, ip; type: functional; conditions: route intraperitoneal
Rattus norvegicus [7] = assay: Reduction of rectal temperature in rat CCI model at 100 mg/kg, ip; type: functional; conditions: route intraperitoneal
Mus musculus [8] = assay: Reduction of rectal temperature in mouse CCI model at 100 mg/kg, ip; type: functional; conditions: route intraperitoneal
Mus musculus [9] = organism: Mus musculus; assay: Effect on capsaicin-induced hypothermia in mouse; type: functional
[10] = Half life in po dosed rat administered through PEG400; type: ADME, organism-based; conditions: in vivo
[11] = Oral bioavailability in rat administered through PEG400; type: ADME, organism-based; conditions: in vivo
[12] = Half life in iv dosed rat; type: ADME, organism-based; conditions: in vivo
[13] = Half life in po dosed rat administered through 0.1% MC solution; type: ADME, organism-based; conditions: in vivo
[14] = Oral bioavailability in rat administered through 0.1% MC solution; type: ADME, organism-based; conditions: in vivo

Transient receptor potential cation channel subfamily V member 1 (Rattus norvegicus, UniProt O35433), sequence (O35433 whole entry): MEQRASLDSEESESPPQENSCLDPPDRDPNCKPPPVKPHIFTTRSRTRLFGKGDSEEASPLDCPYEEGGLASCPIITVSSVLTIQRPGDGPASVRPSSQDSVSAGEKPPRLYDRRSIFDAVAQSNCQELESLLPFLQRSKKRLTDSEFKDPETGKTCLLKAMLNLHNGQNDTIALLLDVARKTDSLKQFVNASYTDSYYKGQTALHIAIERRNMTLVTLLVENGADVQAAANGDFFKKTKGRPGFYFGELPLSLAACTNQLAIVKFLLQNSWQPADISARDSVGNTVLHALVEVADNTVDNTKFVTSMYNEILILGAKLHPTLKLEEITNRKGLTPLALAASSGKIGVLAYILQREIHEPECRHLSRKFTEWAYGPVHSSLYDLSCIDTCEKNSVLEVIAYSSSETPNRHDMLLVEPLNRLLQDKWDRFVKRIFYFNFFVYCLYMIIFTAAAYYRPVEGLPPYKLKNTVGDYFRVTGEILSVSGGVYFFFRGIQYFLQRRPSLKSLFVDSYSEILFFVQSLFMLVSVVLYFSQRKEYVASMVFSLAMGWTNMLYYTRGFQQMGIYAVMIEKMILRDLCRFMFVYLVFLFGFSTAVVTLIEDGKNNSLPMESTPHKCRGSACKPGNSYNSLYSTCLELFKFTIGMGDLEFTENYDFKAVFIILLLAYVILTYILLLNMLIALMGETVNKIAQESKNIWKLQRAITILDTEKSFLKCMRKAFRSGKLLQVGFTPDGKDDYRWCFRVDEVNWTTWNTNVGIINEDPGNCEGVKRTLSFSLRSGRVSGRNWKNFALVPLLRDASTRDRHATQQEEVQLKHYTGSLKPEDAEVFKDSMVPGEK
Transient receptor potential cation channel subfamily V member 1 (Homo sapiens, UniProt Q8NER1), sequence (Q8NER1 whole entry): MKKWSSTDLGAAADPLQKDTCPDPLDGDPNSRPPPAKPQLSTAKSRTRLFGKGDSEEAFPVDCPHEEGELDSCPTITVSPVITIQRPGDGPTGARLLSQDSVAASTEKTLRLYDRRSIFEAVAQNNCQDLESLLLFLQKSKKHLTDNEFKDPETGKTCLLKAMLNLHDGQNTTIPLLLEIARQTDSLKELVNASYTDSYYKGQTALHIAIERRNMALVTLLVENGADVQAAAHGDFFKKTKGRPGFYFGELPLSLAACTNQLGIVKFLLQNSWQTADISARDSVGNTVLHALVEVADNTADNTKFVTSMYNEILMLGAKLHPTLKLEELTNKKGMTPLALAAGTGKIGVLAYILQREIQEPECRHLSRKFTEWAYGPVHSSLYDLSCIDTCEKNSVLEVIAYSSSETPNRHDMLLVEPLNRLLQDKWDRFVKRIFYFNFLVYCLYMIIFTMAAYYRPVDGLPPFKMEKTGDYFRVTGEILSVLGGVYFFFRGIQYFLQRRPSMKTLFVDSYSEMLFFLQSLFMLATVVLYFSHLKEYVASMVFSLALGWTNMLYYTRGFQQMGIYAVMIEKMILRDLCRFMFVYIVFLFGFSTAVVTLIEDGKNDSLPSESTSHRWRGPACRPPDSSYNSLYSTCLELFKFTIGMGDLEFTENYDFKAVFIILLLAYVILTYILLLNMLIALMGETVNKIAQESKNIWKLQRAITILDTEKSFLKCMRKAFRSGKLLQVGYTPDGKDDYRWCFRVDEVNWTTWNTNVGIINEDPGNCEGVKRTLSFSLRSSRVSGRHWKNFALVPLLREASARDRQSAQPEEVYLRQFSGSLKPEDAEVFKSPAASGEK

SMILES: O=C(NCCc1c[nH]c2ccc(Cl)cc12)c1ccc(OC(F)(F)F)cc1
- pIC50 [1]: 5.43

SMILES: O=C(Nc1ccc(I)cc1)c1ccc(C(=O)C(F)(F)F)cc1
- pIC50 [1]: 6.10

SMILES: CC(C)(C)c1ccc2[nH]cc(CCNC(=O)c3ccc(OC(F)(F)F)cc3)c2c1
- pIC50 [1]: < 5.00

SMILES: COc1ccc2[nH]cc(CCNC(=O)c3ccc(OCCN(C)C)cc3)c2c1
- pIC50 [1]: < 5.00

SMILES: CC(=O)c1ccc(C(=O)Nc2ccc(I)cc2)cc1
- pIC50 [1]: < 5.00

SMILES: O=C(Nc1ccc(I)cc1)c1ccc(OC(F)(F)F)cc1
- pIC50 [1]: 6.55

SMILES: O=C(Nc1ccc(I)cc1)c1cccc(C(F)(F)F)c1
- pIC50 [1]: < 5.00

SMILES: COc1ccc2[nH]cc(CCNC(=O)c3ccc(-c4ccccc4)nc3)c2c1
- pIC50 [1]: 5.40

SMILES: COc1ccc2[nH]cc(CCNC(=O)c3ccc(OCC(F)(F)F)nc3)c2c1
- pIC50 [1]: 5.47

SMILES: O=C(Nc1ccc(I)cc1)c1ccccc1C(F)(F)F
- pIC50 [1]: < 5.00

SMILES: CC(C)(C)c1ccc(NC(=O)c2ccc(OC(F)(F)F)cc2)cc1
- pIC50 [1]: 6.92

SMILES: COc1ccc2[nH]cc(C(C)CNC(=O)c3ccc(OC(F)(F)F)cc3)c2c1 (configuration not stated)
- pIC50 [1]: 6.40
- Kb ([1]; read-out: pA2 (converted)): 0.145 µM
- pIC50 [2]: 5.28

SMILES: CC(C)(C)c1ccc(NC(=O)c2ccc(C(F)(F)F)cc2)cc1
- pIC50 [1]: 6.66

SMILES: CC(CNC(=O)c1ccc(OC(F)(F)F)cc1)c1c[nH]c2ccc(O)cc12 (configuration not stated)
- pIC50 [1]: 6.26

SMILES: COc1ccc2[nH]c(C)c(C(C)CNC(=O)c3ccc(OC(F)(F)F)cc3)c2c1 (configuration not stated)
- pIC50 [1]: 5.29

SMILES: O=C(Nc1ccc(C(F)(F)F)cc1)c1ccc(OC(F)(F)F)cc1
- pIC50 [1]: 6.66

SMILES: COc1ccc2[nH]cc(CCNC(=O)c3ccc(Oc4ccccc4)cc3)c2c1
- pIC50 [1]: 5.72

SMILES: Cc1[nH]c2ccc(O)cc2c1C(C)CNC(=O)c1ccc(OC(F)(F)F)cc1 (configuration not stated)
- pIC50 [1]: 5.48

SMILES: O=C(NCC1CCCc2[nH]c3ccc(O)cc3c21)c1ccc(OC(F)(F)F)cc1 (configuration not stated)
- pIC50 [1]: 6.70

SMILES: O=C(NCCc1cccc2ccccc12)c1ccc(OC(F)(F)F)cc1
- pIC50 [1]: 5.59

SMILES: O=C(NCCc1ccccc1Cl)c1ccc(OC(F)(F)F)cc1
- pIC50 [1]: 6.11

SMILES: COc1ccc2[nH]cc(CCNC(=O)c3ccc(C4CCCCC4)cc3)c2c1
- pIC50 [1]: 5.94

SMILES: O=C(NCCc1ccnc2ccccc12)c1ccc(OC(F)(F)F)cc1
- pIC50 [1]: < 5.00

SMILES: O=C(NCCN1CCCc2ccccc21)c1ccc(OC(F)(F)F)cc1
- pIC50 [1]: 5.34

SMILES: O=C(NCCC1CCCc2ccccc21)c1ccc(OC(F)(F)F)cc1 (configuration not stated)
- pIC50 [1]: 5.27

SMILES: O=C(NCCn1ccc2ccccc21)c1ccc(OC(F)(F)F)cc1
- pIC50 [1]: 5.14

SMILES: COc1ccc2c(OC)ccc(CCNC(=O)c3ccc(OC(F)(F)F)cc3)c2c1
- pIC50 [1]: < 5.00

SMILES: COc1ccc2nccc(CCNC(=O)c3ccc(OC(F)(F)F)cc3)c2c1
- pIC50 [1]: < 5.00

SMILES: COc1ccc2c(c1)C(CCNC(=O)c1ccc(OC(F)(F)F)cc1)CCC2 (configuration not stated)
- pIC50 [1]: 5.33

SMILES: O=C(NCCc1cccc2ccc(O)cc12)c1ccc(OC(F)(F)F)cc1
- pIC50 [1]: 6.82

SMILES: O=C(NCCc1ccc(O)c2ccc(O)cc12)c1ccc(OC(F)(F)F)cc1
- pIC50 [1]: 7.12

SMILES: O=C(Nc1ccc2c(c1)CCC2)c1ccc(OC(F)(F)F)cc1
- pIC50 [1]: 6.68

SMILES: CC(C)(C)c1cc(NC(=O)c2ccc(OC(F)(F)F)cc2)cc(C(C)(C)C)c1
- pIC50 [1]: < 5.00

SMILES: O=C(NCCc1ccnc2ccc(O)cc12)c1ccc(OC(F)(F)F)cc1
- pIC50 [1]: 5.91

SMILES: O=C(NCCN1CCCc2ccc(O)cc21)c1ccc(OC(F)(F)F)cc1
- pIC50 [1]: 6.02

SMILES: COc1ccc2cccc(CC(C)NC(=O)c3ccc(OC(F)(F)F)cc3)c2c1 (configuration not stated)
- pIC50 [1]: 5.51

SMILES: O=C(Nc1ccc(C2CCCCC2)cc1)c1ccc(OC(F)(F)F)cc1
- pIC50 [1]: < 5.00

SMILES: O=C(Nc1ccc(-c2ccccc2)cc1)c1ccc(OC(F)(F)F)cc1
- pIC50 [1]: < 5.00

SMILES: O=C(Nc1ccc(I)cc1)Nc1ccc(C(F)(F)F)cc1
- pIC50 [1]: < 5.00

SMILES: COc1ccc2nccc(CC(C)NC(=O)c3ccc(OC(F)(F)F)cc3)c2c1 (configuration not stated)
- pIC50 [1]: < 5.00

SMILES: CC(Cc1ccnc2ccc(O)cc12)NC(=O)c1ccc(OC(F)(F)F)cc1 (configuration not stated)
- pIC50 [1]: 6.13

SMILES: CC(C)(C)c1ccc(CC(=O)c2ccc(C(F)(F)F)cc2)cc1
- pIC50 [1]: < 5.00

SMILES: CC(C)(C)c1ccc(C(N)C(=O)c2ccc(OC(F)(F)F)cc2)cc1 (configuration not stated)
- pIC50 [1]: < 5.00

SMILES: CN(C(=O)c1ccc(OC(F)(F)F)cc1)c1ccc(C(C)(C)C)cc1
- pIC50 [1]: < 5.00

SMILES: O=C(Nc1ccc(C(F)(F)F)cc1)c1ccc(I)cc1
- pIC50 [1]: < 5.00

SMILES: CC(C)(C)c1ccc(-n2nnc(-c3ccc(C(F)(F)F)cc3)n2)cc1
- pIC50 [1]: < 5.00

SMILES: CC(C)(C)c1ccc(-c2cc3cc(C(C)(C)C)ccc3[nH]2)cc1
- pIC50 [1]: < 5.00

SMILES: CC(C)(C)c1ccc2[nH]c(-c3ccc(OC(F)(F)C(F)F)cc3)nc2c1
- pIC50 [1]: 6.32

SMILES: CC(C)(C)c1ccc(-c2nc3cc(OC(F)(F)F)ccc3[nH]2)cc1
- pIC50 [1]: 5.85

SMILES: O=C(NCCc1c[nH]c2ccccc12)c1ccc(OC(F)(F)F)cc1
- pIC50 [1]: 5.13

SMILES: Cn1cc(CCNC(=O)c2ccc(C(F)(F)F)cc2)c2ccccc21
- pIC50 [1]: < 5.00

SMILES: COc1ccc2[nH]cc(CCNC(=O)c3ccc(OC(F)(F)F)cc3)c2c1
- pIC50 [1]: 5.88

SMILES: O=C(NCCc1c[nH]c2ccc(F)cc12)c1ccc(OC(F)(F)F)cc1
- pIC50 [1]: 5.58

SMILES: O=C(NCCc1cccc(Cl)c1)c1ccc(OC(F)(F)F)cc1
- pIC50 [1]: < 5.00 and 5.71

SMILES: COc1ccc2[nH]cc(CCNC(=O)c3ccc(OC(F)(F)C(F)F)cc3)c2c1
- pIC50 [1]: 5.79

SMILES: O=C(NCCc1c[nH]c2ccc(O)cc12)c1ccc(OC(F)(F)F)cc1
- pIC50 [1]: 5.76

SMILES: O=C(NCCc1c(Cl)cccc1Cl)c1ccc(OC(F)(F)F)cc1
- pIC50 [1]: 6.69

SMILES: O=C(NCCc1ccc(Cl)cc1Cl)c1ccc(OC(F)(F)F)cc1
- pIC50 [1]: 5.59

SMILES: O=C(NCCc1ccc(Cl)c(Cl)c1)c1ccc(OC(F)(F)F)cc1
- pIC50 [1]: 5.43

SMILES: O=C(NCCc1ccccc1F)c1ccc(OC(F)(F)F)cc1
- pIC50 [1]: 5.46

SMILES: FC(F)(F)c1ccc(-c2ncc(-c3ccc(Br)cc3)[nH]2)cc1
- pIC50 [1]: 5.22

SMILES: FC(F)C(F)(F)Oc1ccc(-c2nc3cc(Br)ccc3[nH]2)cc1
- pIC50 [1]: 6.42

SMILES: O=C(NCCc1c[nH]c2ccccc12)c1ccc(C(F)(F)F)cc1
- pIC50 [1]: 5.37

SMILES: COc1ccc2c(c1)c1c(n2C)CCCC1CNC(=O)c1ccc(OC(F)(F)F)cc1 (configuration not stated)
- pIC50 [1]: 6.31

SMILES: O=C(NCCc1cccc2ccncc12)c1ccc(OC(F)(F)F)cc1
- pIC50 [1]: 5.17

SMILES: COc1ccc2[nH]cc(CCNC(=O)c3ccc(CC(C)C)cc3)c2c1
- pIC50 [1]: 5.46

SMILES: COc1ccc2[nH]cc(CCNC(=O)c3ccc(-c4ccncc4)cc3)c2c1
- pIC50 [1]: < 5.00

SMILES: COc1ccc2[nH]cc(CCNC(=O)c3ccc(C(F)(F)F)nc3)c2c1
- pIC50 [1]: < 5.00

SMILES: O=C(NCCC1CCCc2ccc(O)cc21)c1ccc(OC(F)(F)F)cc1 (configuration not stated)
- pIC50 [1]: 5.87

SMILES: COc1ccc2[nH]cc(CCNC(=O)c3ccc(C(F)(F)F)cc3)c2c1
- pIC50 [1]: 5.68

SMILES: CC(C)(C)c1ccc(NC(=O)c2ccc(OC(F)(F)C(F)F)cc2)cc1
- pIC50 [1]: 7.15
- ED50 (Rattus norvegicus [3]): 4.2 mg/kg
- ED50 (Mus musculus [4]): 3.8 mg/kg
- inhibition in vivo at 30 mg/kg (Mus musculus [5]): 52%
- inhibition in vivo at 30 mg/kg (Rattus norvegicus [6]): 52%
- inhibition in vivo at 100 mg/kg (Rattus norvegicus [7]): 59%
- pIC50 [2]: 6.59
- inhibition in vivo at 100 mg/kg (Mus musculus [8]): 59%
- ED50 (Mus musculus [9]): 4.5 mg/kg

SMILES: CC(C)(C)c1ccc(NC(=O)c2ccc(SC(F)(F)F)cc2)cc1
- pIC50 [1]: 6.60

SMILES: CC(C)(C)c1ccc(/C=C(\C#N)c2ccc(C(F)(F)F)cc2)cc1
- pIC50 [1]: < 5.00

SMILES: COc1ccc2cccc(CCNC(=O)c3ccc(OC(F)(F)F)cc3)c2c1
- pIC50 [1]: 5.85

SMILES: COc1ccc2ccn(CCNC(=O)c3ccc(OC(F)(F)F)cc3)c2c1
- pIC50 [1]: 5.45

SMILES: CC(C)(C)c1ccc(NC(=O)c2ccc(OCC(F)(F)F)cc2)cc1
- pIC50 [1]: < 5.00

SMILES: CC(Cc1cccc2ccc(O)cc12)NC(=O)c1ccc(OC(F)(F)F)cc1 (configuration not stated)
- pIC50 [1]: 7.09

SMILES: COc1ccc2[nH]cc(CCNC(=O)c3ccc(-c4ccccc4)cc3)c2c1
- pIC50 [1]: 6.43

SMILES: CS(=O)(=O)c1ccc(C(=O)Nc2ccc(I)cc2)cc1
- pIC50 [1]: < 5.00

SMILES: O=C(Nc1ccc(I)cc1)c1ccc(C(F)(F)F)cc1
- pIC50 [1]: 6.48

SMILES: COc1ccc2c(c1)N(CCNC(=O)c1ccc(OC(F)(F)F)cc1)CCC2
- pIC50 [1]: < 5.00

SMILES: CCC(c1ccccn1)c1c(Cl)c(Cl)cc2[nH]c(=O)c(=O)[nH]c12 (configuration not stated)
- pIC50 [1]: 5.85

SMILES: Cn1c2c(c3cc(O)ccc31)C(CNC(=O)c1ccc(OC(F)(F)F)cc1)CCC2 (configuration not stated)
- pIC50 [1]: 7.64
- half-life [10]: 2.1 h
- bioavailability [11]: 30.2%
- pIC50 [2]: 6.39
- half-life [12]: 2.1 h
- half-life [13]: 1.2 h
- bioavailability [14]: 0.7%

SMILES: CC(C)(C)C1CCC(c2nc3ccc(OC(F)(F)F)cc3[nH]2)CC1 (configuration not stated)
- pIC50 [1]: 5.30

SMILES: CC(CNC(=O)c1ccc(OC(F)(F)F)cc1)c1ccc(O)c2ccc(O)cc12 (racemic)
- pIC50 [1]: 7.85
- pIC50 [2]: 7.36

From ChEMBL document CHEMBL1140826, “Synthesis of benzamide derivatives as TRPV1 antagonists” (Bioorg Med Chem Lett, 2008)
